Test results: patent US20140107025A1, “OCULAR DRUG DELIVERY SYSTEM” (priority 2012, published 2014)

Columns and labels:
[1] = tested on: corneal epithelial defects in New Zealand white rabbits; experiment: Corneal epithelial impaired healing debridement model, rHGH in HYSTEM/GSSG gel (Example 3); type: in vivo; conditions: topical dexamethasone 0.1% 4x/day for 7 days; normal healing 4-5 days; some rabbits not completely closed at 7 days
Source text: A corneal epithelial impaired healing debridement model was developed by utilizing a validated epithelial debridement procedure and treating immediately postoperative with topical steroids (dexamethasone). The corneal epithelial defects were created surgically in a standardized and reproducible manner in both eyes. The normal healing for epithelial defects in normal healthy rabbits is 4-5 days. […] This model confirmed delayed epithelial wound healing in New Zealand white rabbits.
Rabbits were randomized post surgical intervention to maintain a masked study. The examiner was masked to the treatment arm.
Recombinant Human Growth Hormone (rHGH) was reconstituted and prepared as instructed, and was delivered topically to the eye via a crosslinked hyaluronic acid gel polymer HYSTEM (with glutathione GSSG) at a concentration of 4 ug/day in a 50 ul drop BID, for 7 days (see Example 2). The comparator arms are shown in Table 1: (1) the polymer HYSTEM with GSSG but without rHGH (group 1) and (2) dexamethasone alone (no polymer and no rHGH) (group 3). In vivo clinical exams were performed twice daily to determine percent corneal healing, corneal defect size, and percent of eyes (cornea) completely healed.

[2] = tested on: corneal epithelial defects in the eyes of New Zealand white rabbits; experiment: Rabbit corneal epithelial debridement model with healing impaired by topical dexamethasone (Example 1); type: in vivo; conditions: for eyes with epithelial defect completely closed/healed by day 5: topical QID OU, all eyes on dexamethasone 0.1% QID, rHGH 100 μg/mL, 50 μL drop
Source text: A rabbit debridement model was used to assess the effect of topically applied rHGH on corneal epithelial defect closure in a model where epithelial closure was impaired by concomitantly administered topical steroids (Dexamethasone 0.1% QID). Standard epithelial defects were created in the eyes of nine New Zealand white rabbits by standard methods. Rabbits received topical dexamethasone QID (4×/day) to all 18 eyes. Rabbits were randomized to one of three treatment arms post surgery: a control arm of dexamethasone only QID OU (both eyes), a vehicle group of BSS (balanced salt solution) QID OU, and test article of rHGH QID OU. One drop (50 μL) of rHGH (reconstituted in Ringers Lactate to achieve a final concentration of 100 μg/mL) (n=3) was applied topically four times to both eyes. All eyes were also treated with one drop of an antibiotic solution after the surgical defect creation. Photographic assessment (twice daily) and fluorescein assessment were used to determine the speed and quality of epithelial defect closure. The corneal defect size was estimated in the photographs by obtaining the pixel count of the defect and dividing by the pixel count of the cornea. The animals were sacrificed on day 5.
The solid black bars represent percent of eyes completely healed when treated with rHGH administered topically whereas the shaded bars represent percent of eyes completely healed when treated with BSS (balanced saline solution). Over the course of this study, no eyes were completely healed when treated with dexamethasone alone.

Compound | time of healing of epithelial defects [1] [days] | eyes with epithelial defect completely closed/healed by day 5 [2] | eyes starting to heal as quickly as Day 2 ([2]; Day 2, rHGH 100 μg/mL topical QID plus dexamethasone) [%] | speed of epithelial defect closure (photographic assessment) ([2]; comparison of treatment arms over 5 days) | tolerability of dosing ([2]; topical ocular dosing QID, 5 days)
C[C@@H]1C[C@H]2[C@@H]3CCC4=CC(=O)C=C[C@]4(C)[C@@]3(F)[C@@H](O)C[C@]2(C)[C@@]1(O)C(=O)CO [dexamethasone, reference compound] | 7 | 0/9 |  |  | 
rHGH: Recombinant human growth hormone; hydrophilic 22 Kda protein of 191 amino acids; Genotropin used in Example 2 |  | 9/9 | 10 | most rapid healing | tolerated the dosing well without clinical concerns
